According to paper PMC4405350, “From Broad-Spectrum Biocides to Quorum Sensing Disruptors and Mussel Repellents: Antifouling Profile of Alkyl Triphenylphosphonium Salts” (PLoS ONE, 2015):
Where two headings read alike, the source gives them in different places.

Key:
Cobetia marina CECT 4278 = assay: Marine bacteria growth inhibition (broth microdilution, OD625); type: cell-based; settings: Cobetia marina, read-out: IC50 C. marina
Description: (§1) All the biological assays were run by triplicate. […] For the active products, serial dilutions were performed to calculate the half-maximal inhibitory concentrations (IC50) or the minimal inhibitory concentrations (MIC). Unless otherwise stated, the test concentrations were 100, 50, 25, 10, 5, 2.5, 1, 0.5 and 0.1 μM. Dose-response curves were adjusted with GraphPad Prism 5 software using a four-parameter non-linear regression model.
(§2) Growth inhibition was assessed in Marine Broth (Conda) according to CLSI guidelines for broth microdilution susceptibility testing. The incubation time was 24 h and the incubation temperature was 30 °C.

[1] = tested on: Vibrio alginolyticus CECT 521; assay: as above; type: cell-based; settings: Vibrio alginolyticus, read-out: IC50 V. alginolyticus
Description: as §1, §2

[2] = tested on: Vibrio anguillarum CECT 4347; assay: as above; type: cell-based; settings: Vibrio anguillarum, read-out: IC50 V. anguillarum
Description: as §1, §2

[3] = tested on: Pseudoalteromonas atlantica CECT 579; assay: as above; type: cell-based; settings: Pseudoalteromonas atlantica, read-out: IC50 P. atlantica
Description: as §1, §2

[4] = tested on: Cellulophaga lytica CECT 5014; assay: as above; type: cell-based; settings: Cellulophaga lytica, read-out: IC50 C. lytica
Description: as §1, §2

[5] = tested on: Shewanella algae CECT 5021; assay: as above; type: cell-based; settings: Shewanella algae, read-out: IC50 S. algae
Description: as §1, §2

[6] = tested on: Gayralia oxysperma spores; assay: Macroalgal spore germination inhibition; type: cell-based; settings: 6 days, 19±1 °C
Description: as §1
To evaluate the effect of the phosphonium salts on the germination of macroalgal spores, Gayralia oxysperma (Kützing) K.L.Vinogradova was selected as model organism. G. oxysperma (Ulotrichales, Chlorophyta) is a cosmopolitan member of the Ulvophyceae. Unlike Ulva species, which produce biflagellate male and female gametes, as well as quadriflagellate spores, G. oxysperma only produces biflagellate spores. This is an advantage as bioassays can be conducted straightforwardly without the need to distinguish between gamete-producing and zoospore-producing plants. […] Fresh fertile fragments were selected and placed in Petri dishes. Spores were then released in Von Stosch Solution (VSS) by the osmotic method. Bioassays were conducted in flat-bottom 96-well plates as described by Chambers and co-workers, with slight modifications. Each well was filled with 50 μl of the appropriate dilution of the products in VSS to which 50 μl of spore inoculum (ca. 2 x 10^5 spores ml^-1) were added. Plates were incubated at 19±1 °C for 6 days. After the incubation time, the bottom of each well was examined for the presence of germinated spores with an inverted microscope. A spore was considered as germinated when the germ tube was visible. The MIC was recorded as the lowest concentration inhibiting spore germination.

[7] = tested on: violacein production of C. violaceum CVO26; assay: Quorum sensing bioassay: violacein production; type: cell-based, Chromobacterium violaceum; settings: Chromobacterium violaceum, 18 h, read-out: IC50 (Violacein inhibition)
Description: The reporter strain C. violaceum CVO26 (CECT 5999) was used to screen the ability of the products to interfere with violacein production, a QS-regulated phenotype. C. violaceum CVO26 is a mini-Tn5 mutant that depends on an exogenous source of autoinducer (AI) (N-hexanoyl homoserine lactone, HHL) for violacein production. C. violaceum CVO26 was cultured in LB broth (Sigma-Aldrich) supplemented with 25 μg ml^-1 kanamycin. Inocula were prepared by dilution (1:100) of an overnight culture of the reporter strain [49]. One hundred microliters of inoculum with HHL (Sigma-Aldrich, 6 μM) or without the AI were added to 96-well plates containing 100 μl of the appropriate dilutions of the test products in LB. Thus, two sets of plates were prepared. One set of plates (without HHL) was used to evaluate the effect of the products on bacterial growth, whereas the other set of plates (with HHL) was used to evaluate their effect on violacein production. Both sets of plates were incubated at 30 °C with agitation (150 rpm) for 18 h.
Growth inhibition was quantified in the first batch of plates by re-suspending bacterial pellets and measuring the OD625. From the second batch of plates violacein was extracted and quantified. Briefly, the plates were dried overnight (60 °C) and violacein was re-solubilized by the addition of 200 μl of DMSO. The plates were shaken for 3 h and then the OD590 was determined.
To evaluate the effect of the alkyl triphenylphosphonium salts on QS-regulated phenotypes, an initial screening at the cut-off concentration of 100 μM was conducted with C. violaceum CVO26. The QS model of C. violaceum is relatively simple and consists of an acyl-homoserine lactone synthase (CviI) that produces the AI molecule N-hexanoyl homoserine lactone (HHL, strain ATCC 31532), or N-3-hydroxydecanoyl homoserine lactone (strain ATCC 12472) which is recognized by the cytoplasmic receptor CviR (Fig 4). The reporter strain CVO26 is a CviI::mini-Tn5 mutant of strain ATCC 31532 and thus recognizes HHL. CviR is a DNA-binding transcription factor that activates the expression of the genes encoding the production of violacein, the characteristic purple alkaloid that gives name to the species.
Indeed, the inhibitions observed in violacein production for long alkyl chains (10–18, 20) were clearly correlated to the biocidal effect exerted by these compounds, with ‘therapeutic ratios’ (IC50 for growth inhibition/IC50 for violacein inhibition) around 1, in general (Table 2). Note that, as the length of the hydrocarbon chain becomes shorter, this ratio increased (8–9). […] To evaluate these compounds in further detail, […] stock solutions were prepared […] to avoid the use of high concentrations of DMSO in the bioassays. […] Serial two-fold dilutions (500–3.9 μM) were assayed. Consequently, the highest amount of DMSO used in the assay was 0.25% (v/v). […] Growth inhibitory effects are only observed at 500 μM, particularly for compound 7 (Fig 6D).

[8] = CECT4278, growth inhibition, 24 h, 30 °C, three replicates
[9] = CECT521, growth inhibition, 24 h, 30 °C, three replicates
[10] = CECT4347, growth inhibition, 24 h, 30 °C, three replicates
[11] = CECT579, growth inhibition, 24 h, 30 °C, three replicates
[12] = CECT5014, growth inhibition, 24 h, 30 °C, three replicates
[13] = CECT5021, growth inhibition, 24 h, 30 °C, three replicates

SMILES	IC50 (Cobetia marina CECT 4278; [8]) [µM]	IC50 [1, 9] [µM]	IC50 [2, 10] [µM]	IC50 [3, 11] [µM]	IC50 [4, 12] [µM]	IC50 [5, 13] [µM]	MIC G. oxysperma (lowest concentration inhibiting spore germination) [6] [µM]	IC50 [7] [µM]	IC50 (Cobetia marina CECT 4278; CECT4278, 24 h) [µM]	IC50 ([1]; CECT521, 24 h) [µM]	IC50 ([2]; CECT4347, 24 h) [µM]	IC50 ([3]; CECT579, 24 h) [µM]	IC50 ([4]; CECT5014, 24 h) [µM]	IC50 ([5]; CECT5021, 24 h) [µM]
CCCCCCCCCC[P+](c1ccccc1)(c1ccccc1)c1ccccc1 [Compound 10]	8	35.5	18.3	5.2	2.6	10.4	50	7.7	–	–	–	–	–	–
CCCCCCCCCCC[P+](c1ccccc1)(c1ccccc1)c1ccccc1 [Compound 11]	6.1	32.9	17	3	1.1	5.4	50	3.5	–	–	–	–	–	–
CCCCCCCCCCCC[P+](c1ccccc1)(c1ccccc1)c1ccccc1 [Compound 12]	–	–	–	–	–	–	50	6.6	5.1	26.3	27.5	1.1	1.7	3
CCCCCCCCCCCCC[P+](c1ccccc1)(c1ccccc1)c1ccccc1 [Compound 13]	5	11.3	5.7	1.2	1.7	3.6	50	3.9	–	–	–	–	–	–
CCCCCCCCCCCCCC[P+](c1ccccc1)(c1ccccc1)c1ccccc1 [Compound 14]	5.3	12.7	1.6	2.3	2	1.2	50	4.6	–	–	–	–	–	–
CCCCCCCCCCCCCCC[P+](c1ccccc1)(c1ccccc1)c1ccccc1 [Compound 15]	5.5	5.6	2.7	2.9	1.9	3.8	50	1.2	–	–	–	–	–	–
CCCCCCCCCCCCCCCC[P+](c1ccccc1)(c1ccccc1)c1ccccc1 [Compound 16]	9.9	16.9	5.3	6.8	1.5	5.4	50	4.2	–	–	–	–	–	–
CCCCCCCCCCCCCCCCCC[P+](c1ccccc1)(c1ccccc1)c1ccccc1 [Compound 17]	> 100	> 100	31.8	46.1	11.3	72.5	>100	7	–	–	–	–	–	–
CCCCCCCCCCCCCCCCCCC[P+](c1ccccc1)(c1ccccc1)c1ccccc1 [Compound 18]	> 100	> 100	> 100	> 100	5.3	> 100	>100	35.2	–	–	–	–	–	–
